Measurements as given in publication PMC10644720 (Frontiers in Pharmacology, 2023).

Key:
human washed platelets = assay: Platelet ROS release assay (DCFH-DA); type: cell-based; conditions: luteolin 25 μM, BAY61-3606 63 nM
Procedure: The assay was performed as previously reported with minor modifications ([Arthur et al., 2012]; [Ye et al., 2020]). Briefly, WPs (500 × 10^9/L) were labeled with 5 μM Fluo-3AM (Cat No. IF0150; Solarbio) or 10 μM DCFH-DA (Cat No. D6883; Sigma, St. Louis, MO, United States) at 37°C for 30 min protected from light. […] In addition, 1 mM CaCl2 and collagen or convulxin were added to start the reaction. […] A ROS probe via a fluorescent enzyme marker was added. O2 ^− and H2O2 were measured using 2 μM Amplex Red (Cat No. ST010; Beyotime Institute of Biotechnology, Shanghai, China) or 2 μM Dihydroethidium (DHE, Cat No. S0063; Beyotime Institute of Biotechnology, Shanghai, China). O2 ^− and H2O2 were analyzed using a Fluoroskan Ascent fluorometer (Thermo Fisher, Waltham, Massachusetts, United States).

NOXs = assay: NADPH oxidase (NOX) activity assay in platelet lysate; type: cell-based, human; conditions: convulxin (5 ng/mL)- and collagen (10 μg/mL)-induced; VAS2870 10 μM
Procedure: MDA, SOD, GPx, and NADPH oxidase activity were measured as previously described ([Krotz et al., 2002]; [Paul et al., 2019]; [Pan et al., 2021]). After incubation and activation, the reaction was stopped by adding 10 mM EGTA. The platelets were pelleted by centrifugation at 20,000 × g for 10 min at 4°C and resuspended in Tyrode’s buffer with 0.1% phosphatase and protease inhibitors (Cat No. 04906837001, Roche Applied Science, Penzberg, Germany; Cat No. P-8340, Sigma, St. Louis, MO, United States). The platelets were disrupted by passing them 10 times through a 29-gauge needle, followed by centrifugation at 2000 × g for 10 min at 4°C to separate the supernatant and precipitate. The detection of MDA, SOD, and GPx in the supernatant was performed according to the kit’s instructions for SOD (Cat No. BC0170, Solarbio Life Science, Beijing, China), MDA (Cat No. S0131S, Beyotime Institute of Biotechnology, Shanghai, China) and GPx (Cat No. S0056, Beyotime Institute of Biotechnology, Shanghai, China). In order to determine NADPH oxidase (NOX) activity, platelet lysate (12.5 μg) was incubated with 10 µM lucigenin and 0.5 mM NADPH at 37°C in the dark. The absorbance values were detected at 450 nm using a spectrophotometer Multiskan FC (ThermoFisher Scientific Inc., Waltham, MA, United States). Protein content was determined by the Bradford method.

Tail bleeding in mice = type: in vivo, C57BL/6 mice; conditions: luteolin 35 μM/kg or aspirin i.p., 30 min after injection; vs DMSO
Procedure: The tail break hemorrhage experiment in mice was performed as previously reported, with slight modifications ([Liu et al., 2012]). […] Before the experiment, the mouse tails were immersed in saline for 3 min at 37°C. Then, 30 min after injection, the tails were quickly cut off using a surgical knife blade and placed in saline at 37°C. The cutting site was 5 mm from the end of the tail tip. The bleeding time of the broken tails was observed and recorded.

[1] = test system: mesenteric artery thrombosis; assay: Ferric chloride-induced mesenteric thrombosis in mice; type: in vivo, C57BL/6 mice; conditions: luteolin 35 μM/kg or aspirin 0.5 mM/kg i.p., 30 min before FeCl3
Procedure: A method reported in the literature was used to observe mesenteric artery thrombosis in mice ([Bonnard and […], 2015]). […] The mice were anesthetized by an intraperitoneal injection of pentobarbital (45 mg/kg). They were given an intraperitoneal injection of DMSO, luteolin, or aspirin. They were also given an orbital vein injection of 5 μg/kg rhodamine (Cat No. 83697-250 MG; Sigma-Aldrich, St. Louis, MO, United States) ([Bonnard and […], 2015]), respectively. The mesenteric vessels were exposed by opening the abdominal cavity, and small mesenteric arteries with a diameter of approximately 150-250 μm were selected under the microscope. […] During thrombosis, images were taken every 1 min for the first 10 min and every 5 min after 10 min using an MSHOT MD50 camera (Micro Shot Technology Ltd., Guangzhou, China) and an Olympus ix73 microscope (Olympus Corp., Shinjuku, Japan). […] The size of the thrombus formation was calculated using ImageJ software.

COc1ccc(-c2cc3nccn3c(Nc3ncccc3C(N)=O)n2)cc1OC [BAY61-3606, reference compound]
effect on platelet ROS release (human washed platelets; collagen (10 μg/mL)-induced): decreasing levels | effect on platelet ROS release (human washed platelets; convulxin (5 ng/mL)-induced): decreased

c1ccc(Cn2nnc3c(Sc4nc5ccccc5o4)ncnc32)cc1 [VAS2870, reference compound]
NOXs activity (NOXs): significantly decreased

CC(=O)Oc1ccccc1C(=O)O [aspirin, reference compound]
tail bleeding time (Tail bleeding in mice): significantly prolonged | time of clot obstruction of blood vessels [1]: significantly prolong | time of initial thrombus formation [1]: Neither the 0.5 mM/kg aspirin group or 35 μM/kg luteolin group prolonged
